Results: patent US20080275111A1, “Novel Use of Lignan Compounds” (priority 2005, published 2008)

Tests used:
IL-6 = IL-6 production in LPS-activated microglia (ELISA); assay type: cell-based, rat; conditions: 1 μg/ml LPS, compound 2.5 and 10 μM, 24 hours
Text: When the microglia is activated by LPS, it synthesizes and secretes various pro-inflammatory cytokines such as IL-1, IL-6 and TNF-α (Chen, S. Neurobiol. Aging, 17:781-787, 1996). Therefore, in order to examine the anti-inflammatory effect of the lignan compound of the present invention, the effect of the lignan compound of the present invention on the production of IL-6 and TNF-α in the activated microglia. First, only the neocortex was isolated from the brain of 1 day-old rat. Then, a microglia-astroglia mixture was prepared according to a method known in the art (Kim, H. Y. et al., J. Immunol., 171:6072-6079, 2003). […] Then, the amount of IL-6 and TNF-α secreted into the cell cultured medium was measured with the solid-phase ELISA system (RPN2742 for IL-6, RPN2744 for TNF-α, Amersham Bioscience). For this analysis, 50 μl of the supernatant of the cultured medium of microglia and 50 μl of the standard of each material (purely isolated and quantified IL-6 or TNF-α) were added into a 96-well plate coated with an antibody specific to mouse IL-6 and TNF-α. […] Then, 100 μl of a stop solution (Amersham Bioscience) was added into each well to stop the reaction, and the absorbance of the solution in each well was measured with a microreader at 450 nm. […]

[1] = Transmission test to the brain (brain uptake clearance, LC/MS); assay type: in vivo; conditions: male SD rat, 1 mg/kg intravenous
Procedure: PE50 tubes are independently inserted into the femoral vein and femoral artery of a 250 g male SD rat, and syringes individually containing physiological saline solution and heparin (25 I.U.) are connected to tubes, respectively. The macelignan isolated and purified in Example 1 was dissolved in DMSO, and intravenously administered into the rat in the amount of 1 mg/kg. 400 μl of the blood samples were collected from the artery at 0.5, 1, 1.5 and 2 minutes after administration. After last sampling, the head of the rat was rapidly cut, and the brain tissue was extracted and slightly washed with physiological saline solution.
The blood sample prepared in the Example <7-1> was centrifuged at 3,000 rpm for 5 minutes to obtain 100 μl of blood plasma. 500 μl of ethylacetate was added into the blood plasma and the mixture was agitated with a vortex mixer for 10 minutes. Then, the mixture was centrifuged at 3,000 rpm for 5 minutes to obtain 400 μl of the supernatant. […]
The weight of the brain tissue sample prepared in the Example <7-1> was measured, and then saline solution corresponding to the weight of 2 times higher than that of the brain tissue was added into the brain tissue and the mixture was homogenized. […]
The blood sample and brain tissue sample treated in the Example <7-2> were introduced into the LC/MS system, and then the LC/MS analysis was performed according to the method of the Example <7-3> and the area of a macelignan peak was obtained on the chromatograph. The concentration of macelignan was calculated by using the area of the macelignan peak through the standard curve prepared in the Example <7-3>.
In a time-concentration graph of macelignan obtained in the blood sample through the Example <7-4>, AUC0^t (Area Under Curve: AUC) from 0 to the last sample time “tlast”, was obtained with a trapezoidal method (Schaum's Outline of Mathematica, MaGraw-Hill, 2000). Additionally, the amount(Xb) of macelignan was calculated using the concentration of the brain tissue sample. AUC of macelignan may be calculated using the mathematical equation 1. […]

## COc1cc(C[C@H](C)[C@H](C)Cc2ccc3c(c2)OCO3)ccc1O [macelignan, (8R,8′S)-7-(3,4-methylenedioxyphenyl)-7′-(4-hydroxy-3-methoxyphenyl)-8,8′-dimethylbutane]
IL-6
  production of IL-6 induced by LPS: dose-dependently inhibited
[1]; brain and plasma, Xb/AUC, read-out: CLuptake (brain uptake clearance)
  clearance: 0.203 ± 0.039 mL/min
[1]; brain taken after the 2 minute sample
  Xb (amount of macelignan in the brain): 7.90 ± 1.52 µg
[1]; plasma 0 to 2 minutes, trapezoidal method
  AUC: 648 ng·h/mL
